Source: patent US11485737B2, “Diaryl substituted 5,5-fused ring compounds as C5aR inhibitors” (CHEMOCENTRYX, INC., priority 2017, dated 2022)

Target: T1, C5aR (Homo sapiens, UniProt P21730)
T1 construct: U937 cells are a monocytic cell line which express C5aR; host or cells: U937 cells (cAMP-treated overnight)
T1 sequence (P21730 1-350): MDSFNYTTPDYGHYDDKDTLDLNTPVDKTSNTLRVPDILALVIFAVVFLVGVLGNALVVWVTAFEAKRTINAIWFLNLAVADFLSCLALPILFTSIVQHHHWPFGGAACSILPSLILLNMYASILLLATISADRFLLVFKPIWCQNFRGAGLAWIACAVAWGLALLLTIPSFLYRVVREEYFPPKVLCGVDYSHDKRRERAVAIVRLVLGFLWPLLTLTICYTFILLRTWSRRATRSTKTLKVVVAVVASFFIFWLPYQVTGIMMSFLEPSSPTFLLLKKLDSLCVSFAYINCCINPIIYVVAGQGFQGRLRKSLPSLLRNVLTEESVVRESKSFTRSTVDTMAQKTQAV
Experiment: Chemotaxis assay using U937 cells (C5a-induced migration)
Type: cell-based
Details: chemotaxis (migration) of U937 cells towards C5a; read-out: Mig IC50
Protocol: U937 cells are a monocytic cell line which express C5aR, and are available from ATCC (VA). These cells were cultured as a suspension in RPMI-1640 medium supplemented with 2 mM L-glutamine, 1.5 g/L sodium bicarbonate, 4.5 g/L glucose, 10 mM HEPES, 1 mM sodium pyruvate, and 10% FBS. Cells were grown under 5% CO2/95% air, 100% humidity at 37° C. and subcultured twice weekly at 1:6 (cells were cultured at a density range of 1×10^5 to 2×10^6 cells/mL) and harvested at 1×10^6 cells/mL. Prior to assay, cells are treated overnight with 0.5 mM of cyclic AMP (Sigma, OH) and washed once prior to use. cAMP treated U937 cells can be used in C5aR ligand binding and functional assays.
Optionally, compounds may be further assayed for their ability to inhibit chemotaxis in cells. Chemotaxis assays are performed using 5 μm pore polycarbonate, polyvinylpyrrolidone-coated filters in 96-well chemotaxis chambers (Neuroprobe; Gaithersburg, Md.) using chemotaxis buffer (Hank's balanced salt solution (HBSS) and 1% FBS). C5aR ligands (i.e., C5a, R&D Systems; Minneapolis, Minn.) are use to evaluate compound mediated inhibition of C5aR mediated migration. Other chemokines (i.e., SDF-1α; R&D Systems; Minneapolis, Minn.) are used as specificity controls. The lower chamber is loaded with 29 μl of chemokine (i.e., 0.03 nM C5a) and varying amounts of compound; the top chamber contains 100,000 U937 or neutrophil cells in 20 μl. The chambers are incubated 1.5 hours at 37° C., and the number of cells in the lower chamber quantified either by direct cell counts in five high powered fields per well or by the CyQuant assay (Molecular Probes), a fluorescent dye method that measures nucleic acid content and microscopic observation.
The compounds in Table 1, below, were prepared using the methods described above. Characterization data is provided for each compound listed. Activity is provided as follows for the chemotaxis assay using U937 cells as described herein (Example 7): +, 500 nM<IC50; ++, 50 nM<IC50<500 nM; +++, 5 nM<IC50<50 nM; and ++++, IC50<5 nM.

Compound	IC50 [nM]
CNc1ccc(-c2c3c(nn2-c2c(C)cccc2C)CN(c2cc(C(C)(C)C)ccc2C)C3)cc1 [Compound 1.050]	> 500
Cc1ccc(C(C)(C)C)cc1N1Cc2nn(-c3c(C)cccc3C)c(-c3ccc(N)cc3)c2C1 [Compound 1.051]	< 5
COc1cccc(C)c1-n1nc2c(c1-c1ccc(NC(N)=O)cc1)CN(c1cc(C(C)(C)C)ccc1C)C2 [Compound 1.052]	> 500
CCCOc1cccc(C)c1-n1nc2c(c1-c1ccc(N)cc1)CN(c1cc(C(C)(C)C)ccc1C)C2 [Compound 1.053]	5 to 50
CCOc1cccc(C)c1-n1nc2c(c1-c1ccc(N)cc1)CN(c1cc(C(C)(C)C)ccc1C)C2 [Compound 1.054]	5 to 50
COc1cccc(C)c1-n1nc2c(c1-c1ccc(N)cc1)CN(c1cc(C(C)(C)C)ccc1C)C2 [Compound 1.055]	5 to 50
